How the values were obtained:
Rattus norvegicus [1] = organism: Rattus norvegicus; assay: In vitro inhibition of norepinephrine (NE) uptake in crude rat brain synaptosomes; type: functional, organism-based
Rattus norvegicus [2] = organism: Rattus norvegicus; assay: In vitro inhibition of serotonin (5-HT) uptake in crude rat brain synaptosomes; type: functional, organism-based
Rattus norvegicus [3] = organism: Rattus norvegicus; assay: In vitro inhibition of norepinephrine (NE) uptake in crude rat brain synaptosomes (% inhibition at maximum concentration)

Row | SMILES | IC50 (Rattus norvegicus [1]) | IC50 (Rattus norvegicus [2]) | IC50 (Rattus norvegicus [3])
1 | NC12CCC(c3ccccc3)(CC1)CC2 | 80 nM | 95 nM | –
2 | CN[C@@H]1CCC(c2ccccc2)c2ccccc21 (stereo partly drawn) | 18 nM | 840 nM | –
3 | NC12CCC(c3ccc(Br)cc3)(CC1)CC2 | 54000 nM | 680 nM | –
4 | CNCCCOc1ccc(C(F)(F)F)cc1 | > 10000 nM | 3000 nM | –
5 | CC(N)C(=O)OC(C)(C)Cc1ccc(Cl)cc1 (stereo not drawn) [ALAPROCLATE] | > 34000 nM | 700 nM | –
6 | CNCC[C@@H](Oc1ccccc1C)c1ccccc1 [ATOMOXETINE] | 4 nM | 1500 nM | –
7 | COc1ccc(OC[C@H]2CN(C)CC[C@@H]2c2ccccc2)cc1 [FEMOXETINE] | 410 nM | 8.3 nM | –
8 | CNCCC(Oc1ccc(C(F)(F)F)cc1)c1ccccc1 (stereo not drawn) [FLUOXETINE] | – | 70 nM | > 10000 nM
9 | CNCCC(Oc1ccccc1OC)c1ccccc1 (stereo not drawn) [NISOXETINE] | 10 nM | 2000 nM | –
